# Values of other authors as cited in patent US20190314298A1, “COMPOSITIONS FOR PREVENTING AND RELIEVING HANGOVER & LIVER DAMAGE WHICH OCCUR DUE TO ALCOHOL CONSUMPTION” (priority 2018, published 2019).
# Conditions: biological activities listed in background table
row,Compound,Activity
1,CC(C)=CC(=O)CC(C)c1ccc(C)cc1 (centres unmarked) [Ar-turmerone],snakebite
2,O=C(C=Cc1ccc(O)cc1)CC(=O)C=Cc1ccc(O)cc1 [Bisdemethoxy curcumin],antioxidant
3,COc1cc(/C=C/C(=O)/C=C(O)\C=C\c2ccc(OC)c(OC)c2)ccc1O [Methylcurcumin],L. amazonensis
4,COc1cc(/C=C/C(=O)CC(=O)/C=C/c2ccc([O-])c(OC)c2)ccc1[O-].[Na+].[Na+] [Sodium curcuminate],anti-inflammatory
5,Demethoxy curcumin,antioxidant
